Legend:
[1] = test system: mice bearing LNCaP tumor xenografts; test: PET/CT imaging of 68Ga-labeled compounds; format: in vivo
Protocol: 2.17 PET/CT Imaging and Biodistribution
Imaging and biodistribution experiments were performed using NODSCID 1L2RyKO male mice. Mice were anesthetized by inhalation with 2% isoflurane in oxygen, and implanted subcutaneously with 1×10^7 LNCaP cells behind left shoulder. Mice were imaged or used in biodistribution studies when the tumor grew up to reach 5-8 mm in diameter during 5-6 weeks.
PET imaging experiments were conducted using Siemens Inveon micro PET/CT scanner. Each tumor bearing mouse was injected 6-8 MBq of 68Ga-labeled tracer through the tail vein under anesthesia (2% isoflurane in oxygen). The mice were allowed to recover and roam freely in their cage. After 50 min, the mice were sedated again with 2% isoflurane in oxygen inhalation and positioned in the scanner. A 10-min CT scan was conducted first for localization and attenuation correction after segmentation for reconstructing the PET images. Then, a 10-min static PET imaging was performed to determined uptake in tumor and other organs. The mice were kept warm by a heating pad during acquisition. For imaging studies acquired at 3 h post-injection (p.i.), the mice were placed in the micro PET/CT scanner at 170 min p.i. Then, the CT acquisitions were conducted as described above, a 15-min static PET imaging was performed to determined uptake in tumor and other organs.

[2] = test system: mice bearing PSMA-expressing LNCAP cancer xenografts; test: Biodistribution of 68Ga-labeled compounds; format: in vivo
In short: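 NOD-SCID IL2RγKO male mice carried subcutaneous LNCaP xenografts grown to 5-8 mm over 5-6 weeks. Organs and blood were collected at 1 or 3 h after injection of the radiotracer and gamma-counted. Uptake was normalized to injected dose via a standard curve and expressed as %ID/g.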

In the case of `O=C([O-])CN1CCN(CC(=O)[O-])CCN(CC(=O)NCCCC[C@H](NC(=O)CNC(=O)CCCc2ccccc2)C(=O)NC[C@H]2CC[C@H](C(=O)N[C@@H](Cc3ccc4ccccc4c3)C(=O)NCCCC[C@H](NC(=O)N[C@@H](CCC(=O)O)C(=O)O)C(=O)O)CC2)CCN(CC(=O)[O-])CC1.[68Ga+3]` [^68Ga-HTK03056], the “change of tumor uptake from 1 h to 3 h post-injection” value ([1]; PET/CT images) is reported as “uptake in tumors increases over time”, the “blood retention (qualitative)” value ([1]; PET/CT images at 1 h and 3 h post-injection, comparison within the figure) is reported as “some extent of blood retention” and the Adrenal glands uptake ([2]; 1 h post-injection) is reported as 3.78 ± 0.46 % ID/g. The Blood uptake ([2]; 1 h post-injection) was 4.68 ± 1.09 % ID/g, the Bone uptake ([2]; 1 h post-injection) was 0.76 ± 0.14 % ID/g and the Brain uptake ([2]; 1 h post-injection) was 0.10 ± 0.03 % ID/g. For the same compound, the Fat uptake ([2]; 1 h post-injection) was 0.87 ± 0.53 % ID/g, the Heart uptake ([2]; 1 h post-injection) was 1.29 ± 0.34 % ID/g and the Intestine uptake ([2]; 1 h post-injection) was 0.60 ± 0.14 % ID/g. For the same compound, the Kidneys uptake ([2]; 1 h post-injection) was 123 ± 30.4 % ID/g, the Lacrimal uptake ([2]; 1 h post-injection) was 1.35 ± 0.43 % ID/g and the Liver uptake ([2]; 1 h post-injection) was 1.02 ± 0.34 % ID/g. The Lungs uptake ([2]; 1 h post-injection) was 3.28 ± 0.85 % ID/g, the Muscle uptake ([2]; 1 h post-injection) was 0.53 ± 0.11 % ID/g and the Pancreas uptake ([2]; 1 h post-injection) was 0.85 ± 0.15 % ID/g. It also gave a Salivary uptake ([2]; 1 h post-injection) of 3.34 ± 0.89 % ID/g, a Seminal uptake ([2]; 1 h post-injection) of 0.74 ± 0.39 % ID/g and a Spleen uptake ([2]; 1 h post-injection) of 3.92 ± 0.88 % ID/g. For the same compound, the Stomach uptake ([2]; 1 h post-injection) was 0.27 ± 0.10 % ID/g, the Tail uptake ([2]; 1 h post-injection) was 1.43 ± 0.34 % ID/g and the Testes uptake ([2]; 1 h post-injection) was 0.98 ± 0.22 % ID/g. The Thyroid uptake ([2]; 1 h post-injection) was 1.49 ± 0.44 % ID/g, the Tumor uptake ([2]; 1 h post-injection) was 25.9 ± 3.21 % ID/g and the “Tumor:Blood ratio” value ([2]; 1 h post-injection) was 5.67 ± 0.97. For the same compound, the “Tumor:Muscle ratio” value ([2]; 1 h post-injection) was 49.7 ± 5.98, the “Tumor:kidney ratio” value ([2]; 1 h post-injection) was 0.22 ± 0.04 and the Urine uptake ([2]; 1 h post-injection) was 203 ± 88.0 % ID/g. The Adrenal glands uptake ([2]; 3 h post-injection) was 3.95 ± 2.28 % ID/g, the Blood uptake ([2]; 3 h post-injection) was 1.17 ± 0.36 % ID/g and the Bone uptake ([2]; 3 h post-injection) was 1.93 ± 1.51 % ID/g. For the same compound, the Brain uptake ([2]; 3 h post-injection) was 0.12 ± 0.05 % ID/g, the Fat uptake ([2]; 3 h post-injection) was 0.58 ± 0.13 % ID/g and the Heart uptake ([2]; 3 h post-injection) was 0.59 ± 0.26 % ID/g. The Intestine uptake ([2]; 3 h post-injection) was 0.34 ± 0.04 % ID/g, the Kidneys uptake ([2]; 3 h post-injection) was 31.1 ± 15.2 % ID/g and the Lacrimal uptake ([2]; 3 h post-injection) was 3.01 ± 1.26 % ID/g. For the same compound, the Liver uptake ([2]; 3 h post-injection) was 0.43 ± 0.08 % ID/g, the Lungs uptake ([2]; 3 h post-injection) was 1.39 ± 0.53 % ID/g and the Muscle uptake ([2]; 3 h post-injection) was 0.46 ± 0.30 % ID/g. It also gave a Pancreas uptake ([2]; 3 h post-injection) of 0.41 ± 0.09 % ID/g, a Salivary uptake ([2]; 3 h post-injection) of 2.06 ± 1.16 % ID/g and a Seminal uptake ([2]; 3 h post-injection) of 0.29 ± 0.08 % ID/g. It also gave a Spleen uptake ([2]; 3 h post-injection) of 2.10 ± 1.16 % ID/g, a Stomach uptake ([2]; 3 h post-injection) of 0.14 ± 0.03 % ID/g and a Tail uptake ([2]; 3 h post-injection) of 0.54 ± 0.22 % ID/g. The Testes uptake ([2]; 3 h post-injection) was 0.56 ± 0.19 % ID/g, the Thyroid uptake ([2]; 3 h post-injection) was 0.72 ± 0.29 % ID/g and the Tumor uptake ([2]; 3 h post-injection) was 32.9 ± 10.9 % ID/g. For the same compound, the “Tumor:Blood ratio” value ([2]; 3 h post-injection) was 30.4 ± 13.2, the “Tumor:Muscle ratio” value ([2]; 3 h post-injection) was 98.6 ± 61.8 and the “Tumor:kidney ratio” value ([2]; 3 h post-injection) was 1.22 ± 0.53. For the same compound, the Urine uptake ([2]; 3 h post-injection) was 275 ± 158 % ID/g.

In the case of `O=C([O-])CN1CCN(CC(=O)[O-])CCN(CC(=O)NCC2CCC(C(=O)NC(Cc3c4ccccc4cc4ccccc34)C(=O)NCCCCC(NC(=O)NC(CCC(=O)O)C(=O)O)C(=O)O)CC2)CCN(CC(=O)[O-])CC1.[68Ga+3]` (stereo not drawn) [^68Ga-HTK03041], the “change of tumor uptake from 1 h to 3 h post-injection” value ([1]; PET/CT images) is reported as “increases from 1 h to 3 h post-injection”, the excretion pathway ([1]; PET/CT images) is reported as “excreted mainly via the renal pathway” and the “tumor uptake (qualitative comparison)” value ([1]; PET/CT images, compounds of FIG. 13) is reported as “highest tumor uptake”. The Adrenal glands uptake ([2]; 1 h post-injection) was 8.90 ± 2.56 % ID/g, the Blood uptake ([2]; 1 h post-injection) was 1.43 ± 0.30 % ID/g and the Bone uptake ([2]; 1 h post-injection) was 1.29 ± 0.45 % ID/g. The Brain uptake ([2]; 1 h post-injection) was 0.10 ± 0.05 % ID/g, the Fat uptake ([2]; 1 h post-injection) was 2.06 ± 0.59 % ID/g and the Heart uptake ([2]; 1 h post-injection) was 1.82 ± 0.21 % ID/g. For the same compound, the Intestine uptake ([2]; 1 h post-injection) was 1.14 ± 0.18 % ID/g, the Kidneys uptake ([2]; 1 h post-injection) was 170 ± 26.4 % ID/g and the Lacrimal uptake ([2]; 1 h post-injection) was 2.44 ± 1.79 % ID/g. The Liver uptake ([2]; 1 h post-injection) was 1.38 ± 0.25 % ID/g, the Lungs uptake ([2]; 1 h post-injection) was 4.32 ± 0.62 % ID/g and the Muscle uptake ([2]; 1 h post-injection) was 0.75 ± 0.09 % ID/g. For the same compound, the Pancreas uptake ([2]; 1 h post-injection) was 1.47 ± 0.16 % ID/g, the Salivary uptake ([2]; 1 h post-injection) was 4.99 ± 0.88 % ID/g and the Seminal uptake ([2]; 1 h post-injection) was 1.03 ± 0.27 % ID/g. It also gave a Spleen uptake ([2]; 1 h post-injection) of 8.95 ± 3.22 % ID/g, a Stomach uptake ([2]; 1 h post-injection) of 0.41 ± 0.11 % ID/g and a Tail uptake ([2]; 1 h post-injection) of 1.36 ± 0.45 % ID/g. It also gave a Testes uptake ([2]; 1 h post-injection) of 1.34 ± 0.22 % ID/g, a Thyroid uptake ([2]; 1 h post-injection) of 2.48 ± 0.44 % ID/g and a Tumor uptake ([2]; 1 h post-injection) of 23.1 ± 6.11 % ID/g. For the same compound, the “Tumor:Blood ratio” value ([2]; 1 h post-injection) was 17.3 ± 7.24, the “Tumor:Muscle ratio” value ([2]; 1 h post-injection) was 31.6 ± 12.1 and the “Tumor:kidney ratio” value ([2]; 1 h post-injection) was 0.14 ± 0.04. The Urine uptake ([2]; 1 h post-injection) was 173 ± 93.01 % ID/g, the Adrenal glands uptake ([2]; 3 h post-injection) was 4.04 ± 1.20 % ID/g and the Blood uptake ([2]; 3 h post-injection) was 0.83 ± 0.27 % ID/g. For the same compound, the Bone uptake ([2]; 3 h post-injection) was 0.98 ± 0.40 % ID/g, the Brain uptake ([2]; 3 h post-injection) was 0.06 ± 0.02 % ID/g and the Fat uptake ([2]; 3 h post-injection) was 1.06 ± 0.20 % ID/g. It also gave a Heart uptake ([2]; 3 h post-injection) of 0.93 ± 0.17 % ID/g, an Intestine uptake ([2]; 3 h post-injection) of 0.67 ± 0.09 % ID/g and a Kidneys uptake ([2]; 3 h post-injection) of 121 ± 37.6 % ID/g. For the same compound, the Lacrimal uptake ([2]; 3 h post-injection) was 2.82 ± 3.84 % ID/g, the Liver uptake ([2]; 3 h post-injection) was 0.82 ± 0.15 % ID/g and the Lungs uptake ([2]; 3 h post-injection) was 2.14 ± 0.39 % ID/g. For the same compound, the Muscle uptake ([2]; 3 h post-injection) was 0.40 ± 0.06 % ID/g, the Pancreas uptake ([2]; 3 h post-injection) was 0.71 ± 0.12 % ID/g and the Salivary uptake ([2]; 3 h post-injection) was 2.11 ± 0.57 % ID/g. The Seminal uptake ([2]; 3 h post-injection) was 4.56 ± 9.00 % ID/g, the Spleen uptake ([2]; 3 h post-injection) was 4.19 ± 1.58 % ID/g and the Stomach uptake ([2]; 3 h post-injection) was 0.26 ± 0.06 % ID/g. The Tail uptake ([2]; 3 h post-injection) was 0.86 ± 0.73 % ID/g, the Testes uptake ([2]; 3 h post-injection) was 0.89 ± 0.12 % ID/g and the Thyroid uptake ([2]; 3 h post-injection) was 1.19 ± 0.23 % ID/g. For the same compound, the Tumor uptake ([2]; 3 h post-injection) was 28.2 ± 9.17 % ID/g, the “Tumor:Blood ratio” value ([2]; 3 h post-injection) was 36.6 ± 15.4 and the “Tumor:Muscle ratio” value ([2]; 3 h post-injection) was 73.8 ± 30.9. The “Tumor:kidney ratio” value ([2]; 3 h post-injection) was 0.26 ± 0.13 and the Urine uptake ([2]; 3 h post-injection) was 171 ± 93.3 % ID/g.

Source: US20200339625A1, “NOVEL RADIOMETAL-BINDING COMPOUNDS FOR DIAGNOSIS OR TREATMENT OF PROSTATE SPECIFIC MEMBRANE ANTIGEN-EXPRESSING CANCER” (PROVINCIAL HEALTH SERVICES AUTHORITY, priority 2017, published 2020)
